According to patent US20130231377A1, “PACTAMYCIN ANALOGS AND METHODS OF USE” (State of Oregon acting by and through the state Board of …, priority 2010, published 2013):

How the values were obtained:
[1] = system: Gram-positive and Gram-negative bacteria (S. aureus, M. smegmatis, P. aeruginosa, E. coli); assay: Antibacterial dose-response studies, broth microdilution (Example 2); type: cell-based; settings: 0.01 (or 0.1)-100 μM
Experimental: Dose response assays were performed at a 100-μL volume in 200 μL Eppendorf tubes. The compounds were diluted and added to the bacterial suspension at final concentrations of 0.01 (or 0.1)-100 μM. After incubation at 37° C. for 24 hours, turbidity of cultures was measured at 600 nm (Biorad, SmartSpec 3000). Each assay was done in triplicate.
To further evaluate and compare the in vitro efficacy of de-6MSA-pactamycin with that of pactamycin, dose-response studies were done using a broth microdilution method with 0.01 (or 0.1)-100 μM concentrations of pactamycin and de-6MSA-pactamycin (FIGS. 16A-16D). […] Both pactamycin and de-6MSA-pactamycin were maximally active between 1 and 10 μM and effective against both Gram-positive and Gram-negative bacteria.

[2] = system: E. coli; assay: Antibacterial agar diffusion assay (Example 2); type: cell-based, Escherichia coli
Experimental: (§1) Antibacterial activity of pactamycin and its analogues was determined by an agar diffusion assay. E. coli, Pseudomonas aeruginosa, Mycobacterium smegmatis, and Staphylococcus aureus were streaked on nutrient agar (Difco) and grown overnight at 37° C. Colonies were transferred to nutrient broth and incubated at 37° C. for 24 hours. Turbidity of the inoculum was measured to a proper density at 600 nm (BioRad, SmartSpec 3000). For plate preparation, inoculum (500 μL) was mixed thoroughly with warm nutrient agar (50 mL) and poured to 25 mL square plates. The agar plates were allowed to solidify and dry for 30 minutes before assay. Sterile blank paper disks (Becton-Dickinson) were impregnated with pactamycin and its analogues (20 μL) at various concentrations and dried at room temperature. The disks were placed onto inoculated agar plates and incubated at 37° C. for 24 hours. In order to produce a contrast background of the inhibition zone, 0.25% MTT developing dye (1 mL) was added over the plates.

[3] = system: human colon cancer HT-29 cells; assay: MTT cell viability assay in HT-29 cells; type: cell-based
Experimental: The MTT assay was carried out as described by Mosmann (J. Immunol. Methods, 1983, 65:55). Briefly, human colon cancer HT-29 cells (ATCC) were seeded in 96-well plates at a density of 1.0×10^4 cells per well. The growth medium consisted of phenol red-free RPMI 1640 (Invitrogen, Carlsbad, Calif.) containing 10% fetal bovine serum (Invitrogen, Carlsbad, Calif.), glutamine (2 mM), penicillin (100 units/mL) and streptomycin (100 μg/mL). After a 24-hour incubation at 37° C. in a humidified atmosphere of 5% CO2, the medium was removed and replaced with fresh RPMI 1640 medium (with or without 10% FBS and no penicillin or streptomycin). Increasing concentrations of pactamycin, pactamycate, de-6MSA pactamycin, or de-6MSA-pactamycate dissolved in DMSO were added to cells at a volume of 0.2 mL/well. DMSO was added to control media not to exceed a final concentration of 1%. Following a 24-hour incubation, the medium was aspirated from each well and replaced with fresh RPMI medium with 10% FBS and MTT (0.5 mg/mL). […] The plate was shaken for 10 minutes before reading the absorbance at 570 nm using a microplate reader (SpectraMax 250, Molecular Devices, Sunnyvale, Calif., USA). The viability of treated cells was expressed as the percentage of control cells. […]

[4] = system: chloroquine-sensitive clone D6 of P. falciparum; assay: Antimalarial activity assay, SYBR Green I fluorescence-based method; type: cell-based, Plasmodium falciparum; settings: Plasmodium falciparum, D6; Example 2, FIG. 14; read-out: EC50 against the D6 strain
Experimental: (§2) An antimalarial activity assay was carried out at the Oregon Translational Research and Drug Development Institute (OTRADI). Two strains of P. falciparum were used. The chloroquine-sensitive clone D6, and chloroquine-resistant and MDR clone Dd2 was obtained from the Malaria Research and Reference Reagent Resource Center (MR4) (Manassas, Va.). The parasites were cultured according to the method of Trager and Jensen (Trager and Jensen, Science, 1976, 193:673-675), with minor modifications. The cultures were maintained in human erythrocytes (Lampire Biological Laboratories, Pipersville, Pa.), suspended at 2% hematocrit in RPMI 1640 (Sigma) containing 0.5% Albumax (Invitrogen), […] hypoxanthine (Lancaster), and 50 μg/L gentamicin (Invitrogen), and incubated at 37° C. under a gas mixture of 5% O2, 5% CO2, and 90% N2. In vitro antimalarial activity was determined by a SYBR Green I fluorescence-based method described previously by Smilkstein et al. (Smilkstein et al., Antimicrob. Agents Chemother., 2004, 48:1803-1806). Frozen stock solutions of each test drug (1 mM in DMSO) were thawed, warmed to 37° C., and mixed thoroughly prior to use. Drug solutions were serially diluted with culture medium, and distributed to asynchronous parasite cultures on 96-well plates in quadruplicate in a total volume of 100 μL to achieve 0.2% parasitemia with a 2% hematocrit in a total volume of 100 μL. Automated pipeting and dilution was carried using programmable Precision XS (Bio-Tek, Winooski, Vt.) and Sciclone ALH3000 (Caliper, Hopkinton, Mass.) robotic stations. The plates then were incubated for 72 hours at temperature and gas conditions described above. After incubation, 100 μL of lysis buffer with SYBR Green I was added to each well. The plates were incubated at room temperature for 1 h and then placed in a 96-well fluorescence plate reader (Synergy4, BioTek, Winooski, Vt.) with excitation and emission wavelength at 485 nm and 528 nm, respectively, for measurement of fluorescence. The 50% inhibitory concentration (IC50) was determined by non-linear regression analysis of logistic dose-response curves (GraphPad Prism software).

[5] = system: chloroquine-resistant and MDR clone Dd2 of P. falciparum; assay: as above; type: cell-based, Plasmodium falciparum
Experimental: as §2

[6] = system: HT-29 human colon carcinoma cells; assay: SRB growth inhibition assay in HT-29 cells; type: cell-based; settings: HT-29 cells, 24 hours
Experimental: Growth inhibition of HT-29 cells induced by the test compounds was also evaluated by the SRB assay, which is based on measuring total biomass by staining the cellular proteins with sulforhodamine B (Skehan et al., J. Natl. Cancer Inst., 1990, 82:1107). After treating the HT-29 cells with the compounds for 24 hours, the adherent cells grown in 96-well plates were fixed with 10% trichloroacetic acid and incubated for 1 hour at 4° C. The plates were washed five times with tap water, dried, and stained with SRB solution (0.4% wt/vol in 1% acetic acid) for 30 minutes at room temperature. The plates were again washed and dried before adding 10 mM Tris base to solubilize the bound stain. Optical densities (OD) were read at 564 nm in SpectraMax 250 and cell growth of treated cells was expressed as the percentage of control cells, ODtest/ODcontrol×100%.

[7] = system: Pseudomonas aeruginosa; assay: Antibacterial agar diffusion assay (Example 2); type: cell-based
Experimental: as §1

[8] = system: Mycobacterium smegmatis; assay: Antibacterial agar diffusion assay (Example 2); type: cell-based
Experimental: as §1

[9] = system: Staphylococcus aureus; assay: Antibacterial agar diffusion assay (Example 2); type: cell-based
Experimental: as §1

Structure (SMILES): CC(=O)c1cccc(N[C@H]2[C@H](N)[C@@](NC(=O)N(C)C)([C@H](C)O)[C@@](C)(O)[C@@]2(O)CO)c1 [de-6MSA-pactamycin]
- biological activity compared with pactamycin in dose-response studies [1]: equivalent biological activity with the parent molecule
- antibacterial activity, growth of E. coli [2]: inhibited the growth
- cytotoxicity profile (MTT-based assay) [3]: equivalent cytotoxicity profiles with the respective parent compounds
- EC50 [4]: 7 nM
- EC50 ([5]; Plasmodium falciparum, Example 2, FIG. 14, multi-drug resistant Dd2, read-out: EC50 against the Dd2 strain): 9 nM
- times more effective than chloroquine against Dd2 ([5]; relative to chloroquine): 10 times
- cytotoxicity profile (SRB-based assay) [6]: equivalent cytotoxicity profiles with the respective parent compounds
- antibacterial activity, growth of Pseudomonas aeruginosa [7]: inhibited the growth
- antibacterial activity, growth of Mycobacterium smegmatis [8]: inhibited the growth
- antibacterial activity, growth of Staphylococcus aureus [9]: inhibited the growth
